Target: DRB3*0202 (Homo sapiens, UniProt P01903+P79483, A212P/D57E/F66Y/L67A/R103Q/R218S/R40L/S89Y/T80R/V86D/Y55F/Y59H)
Assay: peptide affinity binding assay (in-vitro peptide-MHC binding affinity)
Conditions: PADRE and DRB3*0202

Chain of DRB3*0202 (P01903 26-254 limits assumed): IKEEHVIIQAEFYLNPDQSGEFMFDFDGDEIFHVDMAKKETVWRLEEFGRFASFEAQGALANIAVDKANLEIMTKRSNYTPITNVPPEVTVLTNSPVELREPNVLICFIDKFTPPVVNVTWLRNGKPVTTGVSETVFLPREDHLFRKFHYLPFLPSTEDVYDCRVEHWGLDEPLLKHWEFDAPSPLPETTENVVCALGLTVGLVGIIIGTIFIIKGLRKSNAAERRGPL
Chain of DRB3*0202 (P79483 30-266 R40L/Y55F/D57E/Y59H/F66Y/L67A/T80R/V86D/S89Y/R103Q/A212P/R218S limits assumed): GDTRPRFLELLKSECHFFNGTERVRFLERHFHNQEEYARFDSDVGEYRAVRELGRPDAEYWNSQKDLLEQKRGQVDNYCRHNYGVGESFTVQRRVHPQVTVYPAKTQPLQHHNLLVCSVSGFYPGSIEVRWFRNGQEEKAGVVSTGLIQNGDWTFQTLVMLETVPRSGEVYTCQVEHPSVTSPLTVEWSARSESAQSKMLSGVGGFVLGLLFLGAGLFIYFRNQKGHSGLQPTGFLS

## CC(C)C[C@H](NC(=O)[C@@H](NC(=O)[C@H](Cc1c[nH]c2ccccc12)NC(=O)[C@H](C)NC(=O)[C@H](C)NC(=O)[C@@H](NC(=O)[C@H](Cc1ccccc1)NC(=O)[C@H](CCCCN)NC(=O)[C@H](C)N)C(C)C)[C@@H](C)O)C(=O)N[C@@H](CCCCN)C(=O)N[C@@H](C)C(=O)N[C@@H](C)C(=O)N[C@@H](C)C(=O)O [PADRE]
  peptide-MHC binding affinity before and after the addition of an infrared fluorophore ligand: essentially unchanged

Reference: patent US20250152685A1, “METHOD OF MAKING A PERSONALIZED CANCER VACCINE” (FLOW PHARMA, INC., priority 2019, published 2025)
